{
  "source": "patent US20190388354A1",
  "about": "“IMPROVED COMPOSITIONS AND METHODS FOR REDUCING OVERDOSE” (priority 2017, published 2019)",
  "assay": "Effect of different alkalinizing agents on the pH of an acidic solution",
  "type": "physicochemical",
  "experimental": "Various alkalinizing agents were added to a solution of 0.1 N HCl with a starting pH of 2.0 and the pH of the solution was tested at different time points.",
  "note": "Where “and” joins values, the source holds several entries; their conditions need not be identical. Identical values can stand only once.",
  "data": [
    {"smiles": "[O]=[Mg]", "note": "[magnesium oxide]", "values": [
      {"measurement": "effect on the pH of the solution", "setting": "160 mg/320 ml (0.5 mg/ml), 60 minute timecourse", "result": "rapidly raised the pH of the solution to neutral or higher"},
      {"measurement": "effect on the pH of the solution", "setting": "80-120 mg/200 ml powder and 80 mg granular form in 200 ml, 60 minute timecourse", "result": "rapidly raise the pH of the solution to neutral or higher"}
    ]},
    {"smiles": "Cl.N=C(N)NCCC[C@H](N)C(=O)O", "note": "[Arginine HCl, L-arginine-HCl]", "values": [
      {"measurement": "pH of 0.1N HCl solution (starting pH 2.0)", "setting": "100 mg Arginine HCl in 200 ml, time: 10,20,30,40,50,60 min", "result": 2.20}
    ]},
    {"smiles": "CCCCCCCCCCCCOS(=O)(=O)[O-].[Na+]", "note": "[sodium lauryl sulfate]", "values": [
      {"measurement": "pH of 0.1N HCl solution (starting pH 2.0)", "setting": "10 mg (10.22 mg actual) in 200 ml, time by row: r6-r16=0-10 min, r17=20, r18=30 min, sulfate", "result": "2.67 and 2.68"},
      {"measurement": "effect on the pH of the solution", "setting": "10 mg in 200 ml, 30 minute timecourse", "result": "insufficient to substantially raise the pH"}
    ]},
    {"smiles": "O=C([O-])[O-].[Na+].[Na+]", "note": "[sodium carbonate]", "values": [
      {"measurement": "pH of 0.1N HCl solution (starting pH 2.0)", "setting": "11.13 mg in 200 ml, time by row: r7-r12=0-5 min, r13-r16=10,15,20,60 min", "result": "2.80 and 2.66"},
      {"measurement": "pH of 0.1N HCl solution (starting pH 2.0)", "setting": "30.11 mg in 200 ml, time by row: r7-r12=0-5 min, r13-r16=10,15,20,60 min", "result": "3.25 and 3.26 and 3.27 and 2.57 and 3.21 and 3.24"},
      {"measurement": "effect on the pH of the solution", "setting": "81.68 mg in 200 ml, 60 minute timecourse", "result": "raise the pH of the 200 ml solution to above neutral"}
    ]},
    {"smiles": "CNC[C@H](O)[C@@H](O)[C@H](O)[C@H](O)CO", "note": "[Meglumine, meglumine]", "values": [
      {"measurement": "pH of 0.1N HCl solution (starting pH 2.0)", "setting": "120 mg in 200 ml, time: 10,20,30,40,50,60 min", "result": 2.16}
    ]},
    {"smiles": "CC(=O)[O-].[Na+]", "note": "[Sodium Acetate, sodium acetate]", "values": [
      {"measurement": "pH of 0.1N HCl solution (starting pH 2.0)", "setting": "200 mg in 200 ml, time: 10,20,30,40,50,60 min", "result": "4.96 and 5.08 and 5.21 and 5.34 and 4.73"}
    ]},
    {"smiles": "O=C([O-])[O-].[Ca+2]", "note": "[calcium carbonate]", "values": [
      {"measurement": "effect on the pH of the solution", "setting": "240 mg/320 ml (0.75 mg/ml), 60 minute timecourse", "result": "rapidly raised the pH of the solution to neutral or higher"},
      {"measurement": "effect on the pH of the solution", "setting": "120-140 mg/200 ml, 60 minute timecourse", "result": "raise the pH of the solution to near neutral or neutral"}
    ]},
    {"smiles": "O=C([O-])O.[Na+]", "note": "[sodium bicarbonate]", "values": [
      {"measurement": "pH of 0.1N HCl solution (starting pH 2.0)", "setting": "20 mg per 320 mL, time by row: r6-r16=0-10 min, r17-r21=20,30,40,50,60 min", "result": "2.05 and 2.02 and 2.04"},
      {"measurement": "effect on the pH of the solution", "setting": "20 mg/320 ml and 40 mg/320 ml, 60 minute timecourse", "result": "neither amount tested was sufficient to raise the pH to neutral or higher"},
      {"measurement": "pH of 0.1N HCl solution (starting pH 2.0)", "setting": "40 mg per 320 mL, time by row: r6-r16=0-10 min, r17-r21=20,30,40,50,60 min", "result": "2.08 and 2.09 and 2.05"},
      {"measurement": "pH of 0.1N HCl solution (starting pH 2.0)", "setting": "50 mg in 200 ml, time by row: r6-r10=0,10,20,30,40 min", "result": "1.72 and 1.71"},
      {"measurement": "pH of 0.1N HCl solution (starting pH 2.0)", "setting": "100 mg in 200 ml, time by row: r6-r10=0,10,20,30,40 min", "result": "1.75 and 1.71 and 1.76"},
      {"measurement": "effect on the pH of the solution", "setting": "50 and 100 mg/200 ml, 40 minute timecourse", "result": "neither tested amount was sufficient to raise the pH"}
    ]},
    {"smiles": "[Mg+2].[OH-].[OH-]", "note": "[magnesium hydroxide]", "values": [
      {"measurement": "pH of 0.1N HCl solution (starting pH 2.0)", "setting": "60 mg in 200 ml, time by row: r6-r15=1-10 min, r16-r20=20,30,40,50,60 min", "result": "2.96 and 2.99 and 3.00 and 3.01 and 2.50 and 2.66 and 2.83 and 2.92"},
      {"measurement": "pH of 0.1N HCl solution (starting pH 2.0)", "setting": "60 mg per 500 mL, time by row: r8-r18=0-10 min, r19-r23=20,30,40,50,60 min", "result": "2.12 and 2.17 and 2.18 and 2.19 and 2.01 and 2.06"},
      {"measurement": "effect on the pH of the solution", "setting": "71 mg/200 ml, 81 mg/200 ml and 100 mg/200 ml, 60 minute timecourse", "result": "raised the pH of the solution to neutral or higher"},
      {"measurement": "pH of 0.1N HCl solution (starting pH 2.0)", "setting": "100 mg per 500 mL, time by row: r8-r18=0-10 min, r19-r23=20,30,40,50,60 min", "result": "2.21 and 2.33 and 2.38 and 2.40 and 2.41 and 2.03 and 2.10"},
      {"measurement": "effect on the pH of the solution", "setting": "100 mg/320 ml, 180 mg/500 ml, 120 mg/320 ml, 200 mg/500 ml and 240 mg/500 ml, 60 minute timecourse", "result": "rapidly raised the pH of the solution to neutral or higher"}
    ]},
    {"smiles": "O=C([O-])CC(O)(CC(=O)[O-])C(=O)[O-].[Na+].[Na+].[Na+]", "note": "[Sodium Citrate, sodium citrate]", "values": [
      {"measurement": "pH of 0.1N HCl solution (starting pH 2.0)", "setting": "930 mg in 200 ml, time: 10,20,30,40,50,60 min", "result": 5.53}
    ]},
    {"smiles": "O=C([O-])[O-].[Mg+2]", "note": "[magnesium carbonate]", "values": [
      {"measurement": "pH reached", "setting": "80 mg in 200 ml, 30 minute timecourse", "result": "above 9"},
      {"measurement": "pH of 0.1N HCl solution (starting pH 2.0)", "setting": "100 mg Magnesium Carbonate in 200 ml, time: 10,20,30,40,50,60 min", "result": 3.05}
    ]}
  ]
}
